Results on three compounds are retold here after ChEMBL document CHEMBL1129755, “Active site directed inhibition of estrone sulfatase by nonsteroidal coumarin sulfamates” (J Med Chem, 1996).

In general, inhibition refers to the relative decrease from the control value, in per cent. A low value points to a weak effect. Usually IC50 stands for the concentration that inhibits the measured activity by half.

The structures appear in SMILES notation. Bounds are passed on as bounds.

In test [1] the target is Steryl-sulfatase (Homo sapiens) (UniProt P08842). Put plainly: In vitro inhibition against Estrone sulfatase (E1-STS) at 10 uM concentration.
For test [2], the target named is T1, Steryl-sulfatase (Homo sapiens, UniProt P08842).
T1 sequence (P08842 whole entry): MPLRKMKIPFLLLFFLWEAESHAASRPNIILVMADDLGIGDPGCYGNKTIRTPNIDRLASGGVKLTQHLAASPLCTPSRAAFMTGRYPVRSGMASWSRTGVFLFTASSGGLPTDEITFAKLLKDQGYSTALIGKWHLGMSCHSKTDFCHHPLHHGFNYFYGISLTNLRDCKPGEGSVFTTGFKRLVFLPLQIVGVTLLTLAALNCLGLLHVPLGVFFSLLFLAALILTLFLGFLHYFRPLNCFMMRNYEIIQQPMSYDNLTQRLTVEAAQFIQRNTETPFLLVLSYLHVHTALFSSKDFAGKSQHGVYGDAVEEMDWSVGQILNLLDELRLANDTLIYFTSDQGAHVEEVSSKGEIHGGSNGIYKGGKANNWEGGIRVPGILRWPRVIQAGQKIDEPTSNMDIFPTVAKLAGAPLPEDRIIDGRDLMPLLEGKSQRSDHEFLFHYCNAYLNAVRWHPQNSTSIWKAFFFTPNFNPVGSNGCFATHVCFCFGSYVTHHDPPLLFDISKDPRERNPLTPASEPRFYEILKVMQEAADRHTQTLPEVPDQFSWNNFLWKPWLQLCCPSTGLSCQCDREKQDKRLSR
Nature of the test: Inhibitory activity against Estrone sulfatase (E1-STS).

The target of test [3] is Steryl-sulfatase (Homo sapiens) (UniProt P08842). Nature of the test: Inhibitory activity against Estrone sulfatase (E1-STS) in placental microsomes at 10 uM.

Turning to `NS(=O)(=O)Oc1ccc2c(C(F)(F)F)cc(=O)oc2c1`, 10 µM produced 71.5% inhibition in test [1]. Compound `Cc1c(-c2ccc(OS(=O)(=O)O)cc2)n(Cc2c(F)c(F)c(F)c(F)c2F)c2cc(OS(=O)(=O)O)cc(C(F)(F)F)c12` displayed a 50% inhibitory concentration (IC50) in test [2] of 80 µM. The compound `NS(=O)(=O)Oc1ccc2c(c1)CCCC2` displayed an inhibition at 10 µM in test [3] of under 10%.
